Results from the supplement of paper PMC13380429.
± gives the standard deviation of the averaged measurements.

How the values were obtained:
Conditions in all cases: 72 h
Caco-2 [1] = assay: relative viability EC50 (midpoint between 100% and the lowest measured viability); higher = less toxic
U2OS [2] = assay: as above
Calu-3 [3] = assay: as above
Vero E6 [4] = assay: as above
HepG2 [5] = assay: as above
Caco-2 [6] = assay: drug sensitivity score (DSS) for viability; higher = more toxic; extreme values may be limits of the assay
U2OS [7] = assay: as above
Calu-3 [8] = assay: as above
Vero E6 [9] = assay: as above
HepG2 [10] = assay: as above
Caco-2 [11] = assay: cell viability relative to DMSO; higher = less toxic
U2OS [12] = assay: as above
Calu-3 [13] = assay: as above
Vero E6 [14] = assay: as above
HepG2 [15] = assay: as above

Structure (SMILES)	relative viability EC50 (Caco-2 [1]) [µM]	relative viability EC50 (U2OS [2]) [µM]	relative viability EC50 (Calu-3 [3]) [µM]	relative viability EC50 (Vero E6 [4]) [µM]	relative viability EC50 (HepG2 [5]) [µM]	drug sensitivity score (Caco-2 [6])	drug sensitivity score (U2OS [7])	drug sensitivity score (Calu-3 [8])	drug sensitivity score (Vero E6 [9])	drug sensitivity score (HepG2 [10])	cell viability (Caco-2 [11]; 1 nM) [%]	cell viability (Caco-2 [11]; 10 nM) [%]	cell viability (Caco-2 [11]; 100 nM) [%]	cell viability (Caco-2 [11]; 1000 nM) [%]	cell viability (Caco-2 [11]; 10000 nM) [%]	cell viability (U2OS [12]; 1 nM) [%]	cell viability (U2OS [12]; 10 nM) [%]	cell viability (U2OS [12]; 100 nM) [%]	cell viability (U2OS [12]; 1000 nM) [%]	cell viability (U2OS [12]; 10000 nM) [%]	cell viability (Calu-3 [13]; 1 nM) [%]	cell viability (Calu-3 [13]; 10 nM) [%]	cell viability (Calu-3 [13]; 100 nM) [%]	cell viability (Calu-3 [13]; 1000 nM) [%]	cell viability (Calu-3 [13]; 10000 nM) [%]	cell viability (Vero E6 [14]; 1 nM) [%]	cell viability (Vero E6 [14]; 10 nM) [%]	cell viability (Vero E6 [14]; 100 nM) [%]	cell viability (Vero E6 [14]; 1000 nM) [%]	cell viability (Vero E6 [14]; 10000 nM) [%]	cell viability (HepG2 [15]; 1 nM) [%]	cell viability (HepG2 [15]; 10 nM) [%]	cell viability (HepG2 [15]; 100 nM) [%]	cell viability (HepG2 [15]; 1000 nM) [%]	cell viability (HepG2 [15]; 10000 nM) [%]
CC(C)N1Cc2cc(S(C)(=O)=O)ccc2N(CCN2CC=C(c3c[nH]c4cc(F)ccc34)CC2)S1(=O)=O	> 10	> 10	> 10	> 10	> 10	0	0	0	0	0	98.3	98.8	102	91.2	104	99.9	99.1	103	95.8	95.2	98.6	99.3	92.7	107	110	89.6	97.7	94.1	94.7	97.6	99.9	107	95.8	105	100
CC(C)n1cnc2c(C(=O)N[C@H]3CN4CCC3CC4)cc(Cl)cc21	> 10	> 10	> 10	> 10	> 10	0	0	0	0	0	106	106	94.4	101	94.9	104	103	97.1	105	97.8	93.9	101	84.9	92.9	90.6	100	95.8	97.5	94.9	100	116	102	104	98.2	97.6
CCOc1ccc(-c2ccc(Cn3c(CC(C)(C)C(=O)O)c(SC(C)(C)C)c4cc(OCc5ccc(C)cn5)ccc43)cc2)cn1	> 10	> 10	> 10	> 10	> 10	0	1	0	1.3	1	98.4	98.8	105	103	88.9	100	106	96.6	97.8	78.2	107	105	111	112	99.9	98.6	95.4	90.1	94	76.1	104	104	102	86.2	95.7
COc1ccc(-c2cc3c(C)nc(N)nc3n([C@H]3CC[C@H](OCCO)CC3)c2=O)cn1	0.114	0.504	0.0917	0.21	0.202	17.2	14.2	20.8	16	15.9	92.5	89.9	67.1	27.7	23.4	100	95	89.1	32.6	3.8	85.3	87.3	56	19.6	10	94	98.4	74.4	30	17	104	103	77.5	28.7	20.1
COc1ccccc1NC(=O)OCC1CCN(C(=O)OC(C)(C)C)CC1	> 10	> 10	> 10	> 10	> 10	0	0	0	0	0	89.2	96.2	101	97.9	97.9	96.8	99	94.4	99.1	94.7	108	102	94.5	109	108	97.4	102	99.8	99.2	95.2	111	108	100	94.5	104
C[C@H](NC(=O)Cc1cc(F)cc(F)c1)C(=O)N[C@@H]1C(=O)N(C)c2ccccc2-c2ccccc21	> 10	> 10	> 10	> 10	> 10	0	0	0	0	0	89.5	88.6	93.1	94.3	96.7	94.8	96.8	90.9	91.5	93.1	106	89.5	90.6	97	94.9	100	98.7	97.1	102	109	112	95.7	102	98.2	98.6
Cc1c(CC(C)(C)C(=O)O)n(Cc2ccc(Cl)cc2)c2ccc(F)cc12	> 10	> 10	> 10	> 10	> 10	0	0	0	0	0	91.9	106	98.5	97.6	99	98.7	99.4	103	96.4	99.7	104	102	96.1	95.9	88	98.3	97.5	95.2	101	108	97.2	109	93.7	112	110
N#Cc1ccc(-c2ccc(S(=O)(=O)Nc3cccc(N)n3)cc2)cc1	> 10	> 10	> 10	> 10	> 10	0	0	0	0	1	87.9	95.5	95.4	96.7	91	101	97.2	101	99.4	95.1	99.6	104	98.9	107	104	97.4	96.3	95.9	93.9	90.8	100	98.3	104	97.6	79
Nc1nc2ccc(Cl)cc2c2nc(-c3ccco3)nn12	> 10	> 10	> 10	> 10	0.297	2.2	0	0.4	0.2	13.8	100	91.6	104	88.1	76.7	102	100	103	97.7	98.3	109	92.8	96.9	98.5	84.9	96.1	97.6	94.2	100	85.9	91.5	104	87.7	33.5	23.2
O=C(O)c1cc2cccc([N+](=O)[O-])c2[nH]1	> 10	> 10	> 10	> 10	> 10	0	0	0	0	0	98	91.4	88.4	101	116	100	97.9	101	102	104	90.8	101	100	99.5	111	97.2	99.2	93.6	97.6	110	102	99.2	98.8	112	112
O=C(OCCN1CCCCC1)c1c[nH]c2ccccc12	> 10	> 10	> 10	> 10	> 10	0	0	0	0	0	99.3	97.2	95.3	96.3	99.4	96.8	104	97.6	102	94.3	106	104	97.7	103	91.3	98.7	95.6	95.4	95.8	104	102	93.8	98.2	106	94.4
O=C(O)[C@H]1CCCN(CCC=C(c2ccccc2)c2ccccc2)C1 (racemic)	> 10	> 10	> 10	> 10	> 10	0	0	0	0	0	95.9	98.7	102	95.7	94.9	98.6	98.2	98.1	102	91.3	96.8	98.5	111	90.9	111	99.6	100	101	102	103	107	94.5	83.9	108	99.2
CC(C)NC[C@@H](O)COc1ccc(CC(N)=O)cc1 (racemic) [atenolol-(+/-)]	> 10	> 10	> 10	> 10	> 10	0.25 ± 0.35	0	0	0.1 ± 0.14	0.05 ± 0.071	99.8 ± 9.3	99 ± 11	105 ± 7	88.3 ± 0.99	92.1 ± 0.85	98.2 ± 3.5	96 ± 3	100.1 ± 0.28	97 ± 0.71	99.1 ± 3.7	94.2 ± 4.5	101 ± 11	96.5 ± 3.4	97.8 ± 2.3	102 ± 2.6	103 ± 4.4	85.3 ± 10	105 ± 4.5	92.4 ± 13	97 ± 5.9	101 ± 10	92 ± 14	98.9 ± 9.5	96.2 ± 8.2	99.2 ± 18
CC(C)CC(NC(=O)OCC1c2ccccc2-c2ccccc21)C(=O)O (stereo in doubt)	> 10	> 10	> 10	> 10	> 10	0	0	0	0	0	85.2	90.4	104	96.5	98.2	91	95.3	105	99.7	101	89.2	102	107	102	92.8	97.3	102	95.6	94.5	108	90.3	103	90.1	102	97.8
CC(C)C(N)C(=O)O (stereo in doubt) [L-valine]	> 10	> 10	> 10	> 10	> 10	0	0	0	0	0	96	91.3	100	98.7	102	101	92.7	98.1	93.5	102	102	105	95.9	93	99	96.8	96.7	96.6	92.3	95.5	94.8	94.5	99	96.9	99.3
